Source: ChEMBL document CHEMBL5338728, “Advancing Strategies for Proteolysis-Targeting Chimera Design” (J Med Chem, 2023)

Columns and labels:
[1] = molecular target: von Hippel-Lindau disease tumor suppressor/ALK tyrosine kinase receptor (Homo sapiens, UniProt Q9UM73+P40337); experiment: Protac activity at VHL/ALK in human SR cells assessed as protein degradation
[2] = molecular target: T1, von Hippel-Lindau disease tumor suppressor/Fibroblast growth factor receptor 1 (Homo sapiens, UniProt P11362+P40337); experiment: Protac activity at VHL/FGFR1 in human CC-LP-1 cells assessed as protein degradation; type: cell-based
[3] = molecular target: T1, von Hippel-Lindau disease tumor suppressor/Fibroblast growth factor receptor 1; experiment: Protac activity at VHL/FGFR1 in human CC-LP-1 cells assessed as protein degradation by measuring maximal efficacy relative to control; type: cell-based
[4] = molecular target: von Hippel-Lindau disease tumor suppressor/Bcl-2-like protein 1 (Homo sapiens, UniProt Q07817+P40337); experiment: Protac activity at VHL/BCL-xL in human HEK293T cells assessed as protein degradation; type: cell-based
[5] = molecular target: von Hippel-Lindau disease tumor suppressor/Apoptosis regulator Bcl-2 (Homo sapiens, UniProt P10415+P40337); experiment: Protac activity at VHL/BCL-2 in human HEK293T cells assessed as protein degradation; type: cell-based
[6] = test system: von Hippel-Lindau disease tumor suppressor/Leucine-rich repeat serine/threonine-protein kinase 2 (Mus musculus), Q5S006+P40338 [G2019S]; experiment: Protac activity at VHL/LRRK2 G2019S mutant in mouse MEF cells assessed as protein degradation at 33 nM after 4 hrs by Western blot analysis relative to control; type: cell-based
[7] = molecular target: T2, von Hippel-Lindau disease tumor suppressor/Leucine-rich repeat serine/threonine-protein kinase 2 (Mus musculus) (UniProt Q5S006+P40338); experiment: Protac activity at VHL/wild type LRRK2 in mouse MEF cells assessed as induction of protein degradation by measuring maximal efficacy after 4 hrs by Western blot analysis relative to control; type: cell-based
[8] = Cmax in C57BL/6 mouse at 30 mg/kg, po; type: ADME, organism-based; design: dose 30 mg/kg, route po; conditions: in vivo
[9] = Oral bioavailability in C57BL/6 mouse at 30 mg/kg; type: ADME, organism-based; conditions: in vivo
[10] = test system: von Hippel-Lindau disease tumor suppressor/Leucine-rich repeat serine/threonine-protein kinase 2 (Mus musculus), Q5S006+P40338 [G2019S]; experiment: Protac activity at VHL/LRRK2 G2019S mutant in mouse MEF cells assessed as protein degradation at 1 uM after 4 hrs by Western blot analysis relative to control; type: cell-based
[11] = Tmax in C57BL/6 mouse at 30 mg/kg, po; type: ADME, organism-based; conditions: in vivo
[12] = test system: von Hippel-Lindau disease tumor suppressor/Leucine-rich repeat serine/threonine-protein kinase 2 (Mus musculus), Q5S006+P40338 [G2019S]; experiment: Protac activity at VHL/LRRK2 G2019S mutant in mouse MEF cells assessed as induction of protein degradation by measuring maximal efficacy after 4 hrs by Western blot analysis relative to control; type: cell-based
[13] = molecular target: T2, von Hippel-Lindau disease tumor suppressor/Leucine-rich repeat serine/threonine-protein kinase 2 (Mus musculus); experiment: Protac activity at VHL/wild type LRRK2 in mouse MEF cells assessed as protein degradation at 33 nM after 4 hrs by Western blot analysis relative to control; type: cell-based
[14] = molecular target: von Hippel-Lindau disease tumor suppressor/Leucine-rich repeat serine/threonine-protein kinase 2 (Mus musculus, UniProt Q5S006+P40338); experiment: Protac activity at VHL/wild type LRRK2 in mouse MEF cells assessed as protein degradation after 4 hrs by Western blot analysis; type: cell-based
[15] = Cmax in C57BL/6 mouse at 30 mg/kg, ip; type: ADME, organism-based; design: dose 30 mg/kg, route ip; conditions: in vivo
[16] = Tmax in C57BL/6 mouse at 30 mg/kg, ip; type: ADME, organism-based; conditions: in vivo
[17] = molecular target: von Hippel-Lindau disease tumor suppressor/Leucine-rich repeat serine/threonine-protein kinase 2 (Mus musculus, UniProt Q5S006+P40338, G2019S); experiment: Protac activity at VHL/LRRK2 G2019S mutant in mouse MEF cells assessed as protein degradation after 4 hrs by Western blot analysis; type: cell-based
[18] = molecular target: T3, Protein cereblon/Bromodomain-containing protein 4 (Homo sapiens, UniProt O60885+Q96SW2); experiment: Protac activity at CRBN/BRD4 in HEK293 cells assessed as protein degradation by measuring maximal efficacy relative to control; type: cell-based
[19] = molecular target: T3, Protein cereblon/Bromodomain-containing protein 4; experiment: Protac activity at CRBN/BRD4 in human 22Rv1 cells assessed as degradation of BRD4; type: cell-based
[20] = Oral bioavailability in mouse at 30 mg/kg; type: ADME, organism-based; conditions: in vivo
[21] = molecular target: T4, von Hippel-Lindau disease tumor suppressor/SWI/SNF-related matrix-associated actin-dependent regulator of chromatin subfamily A member 2 (Homo sapiens, UniProt P51531+P40337); experiment: Protac activity at VHL/SMARCA2 in human RKO cells assessed as protein degradation incubated for 18 hrs by capillary electrophoresis analysis; type: cell-based
Target sequence in this assay (P51531 whole entry): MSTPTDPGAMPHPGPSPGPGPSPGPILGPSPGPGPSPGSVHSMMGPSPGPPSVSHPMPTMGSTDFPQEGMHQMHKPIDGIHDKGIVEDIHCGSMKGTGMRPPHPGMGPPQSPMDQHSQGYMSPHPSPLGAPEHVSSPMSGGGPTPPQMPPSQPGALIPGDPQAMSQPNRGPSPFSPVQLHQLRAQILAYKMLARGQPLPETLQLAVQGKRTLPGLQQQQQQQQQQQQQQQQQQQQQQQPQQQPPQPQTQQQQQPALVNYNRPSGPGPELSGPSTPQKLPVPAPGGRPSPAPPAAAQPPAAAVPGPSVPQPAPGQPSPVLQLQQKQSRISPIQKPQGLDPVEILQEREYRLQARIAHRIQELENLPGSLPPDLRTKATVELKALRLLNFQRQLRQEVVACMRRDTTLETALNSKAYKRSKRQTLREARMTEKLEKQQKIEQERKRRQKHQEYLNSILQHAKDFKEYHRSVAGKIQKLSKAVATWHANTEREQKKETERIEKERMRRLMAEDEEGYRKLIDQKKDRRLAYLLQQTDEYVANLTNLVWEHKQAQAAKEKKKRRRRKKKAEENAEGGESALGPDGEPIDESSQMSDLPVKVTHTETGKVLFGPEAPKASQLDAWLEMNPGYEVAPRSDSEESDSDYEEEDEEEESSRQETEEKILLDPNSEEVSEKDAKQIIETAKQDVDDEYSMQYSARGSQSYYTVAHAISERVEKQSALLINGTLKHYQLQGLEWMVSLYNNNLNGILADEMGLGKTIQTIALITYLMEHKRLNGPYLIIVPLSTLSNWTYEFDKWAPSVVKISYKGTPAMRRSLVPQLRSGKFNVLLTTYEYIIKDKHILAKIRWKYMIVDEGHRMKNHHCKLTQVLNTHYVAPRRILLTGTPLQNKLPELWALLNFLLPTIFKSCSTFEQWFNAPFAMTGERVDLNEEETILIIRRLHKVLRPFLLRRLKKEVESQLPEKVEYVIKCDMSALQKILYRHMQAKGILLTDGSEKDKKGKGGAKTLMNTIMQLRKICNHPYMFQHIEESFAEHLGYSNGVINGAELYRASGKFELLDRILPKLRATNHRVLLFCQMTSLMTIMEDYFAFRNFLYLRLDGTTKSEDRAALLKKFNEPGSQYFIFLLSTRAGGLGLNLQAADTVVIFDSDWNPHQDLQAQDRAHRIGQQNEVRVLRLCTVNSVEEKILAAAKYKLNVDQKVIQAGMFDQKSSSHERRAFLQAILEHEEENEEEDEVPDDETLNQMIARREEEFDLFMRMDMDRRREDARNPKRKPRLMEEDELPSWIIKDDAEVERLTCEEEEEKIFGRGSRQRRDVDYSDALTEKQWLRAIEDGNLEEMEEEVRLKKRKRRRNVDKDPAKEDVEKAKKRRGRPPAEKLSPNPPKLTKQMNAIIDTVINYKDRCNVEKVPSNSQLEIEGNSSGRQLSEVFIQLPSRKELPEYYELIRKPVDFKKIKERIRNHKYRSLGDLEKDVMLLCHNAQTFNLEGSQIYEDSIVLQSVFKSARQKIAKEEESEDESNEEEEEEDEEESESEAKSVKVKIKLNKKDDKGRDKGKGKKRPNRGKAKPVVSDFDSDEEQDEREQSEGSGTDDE
Target sequence in this assay (P40337 whole entry): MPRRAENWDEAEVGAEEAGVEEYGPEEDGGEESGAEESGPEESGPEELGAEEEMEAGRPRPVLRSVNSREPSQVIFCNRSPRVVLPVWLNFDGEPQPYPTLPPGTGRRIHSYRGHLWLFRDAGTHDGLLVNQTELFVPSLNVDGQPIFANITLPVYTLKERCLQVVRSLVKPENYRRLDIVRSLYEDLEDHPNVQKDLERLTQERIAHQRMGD

[22] = molecular target: T5, Protein cereblon/Myc proto-oncogene protein (Homo sapiens, UniProt P01106+Q96SW2); experiment: PROTAC activity at MYC/CRBN in human HCT-116 cells assessed as degradation; type: cell-based
[23] = molecular target: T5, Protein cereblon/Myc proto-oncogene protein; experiment: PROTAC activity at MYC/CRBN in human PSN1 cells assessed as degradation; type: cell-based
[24] = molecular target: BRD4/E3 ubiquitin-protein ligase Mdm2 (Homo sapiens) (UniProt Q00987+O60885); experiment: Protac activity at MDM2/BRD4 in human HCT-116 cells assessed as induction of protein degradation by measuring maximal efficacy relative to control; type: cell-based
[25] = molecular target: Protein cereblon/Tyrosine-protein kinase BTK (Homo sapiens) (UniProt Q06187+Q96SW2); experiment: Protac activity at CRBN/BTK in human NAMALVA cells assessed as protein degradation by measuring maximal efficacy after 24 hrs by Western blot analysis relative to control; type: cell-based
[26] = molecular target: T6, Protein polybromo-1/von Hippel-Lindau disease tumor suppressor (Homo sapiens, UniProt Q86U86+P40337); experiment: Protac activity at VHL/PBRM1 in human MV4-11 cells assessed as protein degradation; type: cell-based
[27] = molecular target: T4, von Hippel-Lindau disease tumor suppressor/SWI/SNF-related matrix-associated actin-dependent regulator of chromatin subfamily A member 2; experiment: Protac activity at VHL/SMARCA2 in human NCI-H1568 cells assessed as protein degradation; type: cell-based
Target sequence in this assay (P51531 whole entry): as the sequence (P51531 whole entry) above
Target sequence in this assay (P40337 whole entry): as the sequence (P40337 whole entry) above

[28] = molecular target: T6, Protein polybromo-1/von Hippel-Lindau disease tumor suppressor; experiment: Protac activity at VHL/PBRM1 in human NCI-H1568 cells assessed as protein degradation; type: cell-based
[29] = molecular target: T3, Protein cereblon/Bromodomain-containing protein 4; experiment: Protac activity at CRBN/BRD4 in HEK293T cells assessed as protein degradation by immunoblot analysis; type: cell-based
[30] = molecular target: E3 ubiquitin-protein ligase XIAP/Tyrosine-protein kinase BTK (Homo sapiens, UniProt P98170+Q06187); experiment: Protac activity at IAP/BTK in human THP-1 cells assessed as protein degradation; type: cell-based
[31] = molecular target: T7, Protein fem-1 homolog B/Bromodomain-containing protein 4 (Homo sapiens, UniProt O60885+Q9UK73); experiment: Protac activity at FEM1B/BRD4 in HEK293T cells assessed as degradation of BRD4; type: cell-based
[32] = molecular target: T7, Protein fem-1 homolog B/Bromodomain-containing protein 4; experiment: Protac activity at FEM1B/BRD4 in HEK293T cells assessed as induction of protein degradation by measuring maximal efficacy relative to control; type: cell-based
[33] = molecular target: T4, von Hippel-Lindau disease tumor suppressor/SWI/SNF-related matrix-associated actin-dependent regulator of chromatin subfamily A member 2; experiment: Protac activity at VHL/SMARCA2 in human RKO cells assessed as induction of protein degradation by measuring maximal efficacy incubated for 18 hrs by capillary electrophoresis analysis relative to control; type: cell-based
Target sequence in this assay (P40337 whole entry, looked up): as the sequence (P40337 whole entry) above
Target sequence in this assay (P51531 whole entry, looked up): as the sequence (P51531 whole entry) above

T3 sequence (Q96SW2 whole entry, looked up, other chains not shown): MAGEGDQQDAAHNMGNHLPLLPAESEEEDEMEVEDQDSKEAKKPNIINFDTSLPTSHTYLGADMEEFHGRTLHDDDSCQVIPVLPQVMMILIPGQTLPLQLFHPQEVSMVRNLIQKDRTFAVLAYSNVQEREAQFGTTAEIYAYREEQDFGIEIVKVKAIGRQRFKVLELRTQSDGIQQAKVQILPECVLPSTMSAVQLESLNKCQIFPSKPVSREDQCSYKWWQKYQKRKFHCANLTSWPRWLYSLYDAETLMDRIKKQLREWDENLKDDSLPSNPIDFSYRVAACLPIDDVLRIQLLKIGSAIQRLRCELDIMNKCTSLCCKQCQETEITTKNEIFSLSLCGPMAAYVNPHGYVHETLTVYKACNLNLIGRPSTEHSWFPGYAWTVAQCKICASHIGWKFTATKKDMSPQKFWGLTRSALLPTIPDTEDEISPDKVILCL
T6 sequence (Q86U86 whole entry): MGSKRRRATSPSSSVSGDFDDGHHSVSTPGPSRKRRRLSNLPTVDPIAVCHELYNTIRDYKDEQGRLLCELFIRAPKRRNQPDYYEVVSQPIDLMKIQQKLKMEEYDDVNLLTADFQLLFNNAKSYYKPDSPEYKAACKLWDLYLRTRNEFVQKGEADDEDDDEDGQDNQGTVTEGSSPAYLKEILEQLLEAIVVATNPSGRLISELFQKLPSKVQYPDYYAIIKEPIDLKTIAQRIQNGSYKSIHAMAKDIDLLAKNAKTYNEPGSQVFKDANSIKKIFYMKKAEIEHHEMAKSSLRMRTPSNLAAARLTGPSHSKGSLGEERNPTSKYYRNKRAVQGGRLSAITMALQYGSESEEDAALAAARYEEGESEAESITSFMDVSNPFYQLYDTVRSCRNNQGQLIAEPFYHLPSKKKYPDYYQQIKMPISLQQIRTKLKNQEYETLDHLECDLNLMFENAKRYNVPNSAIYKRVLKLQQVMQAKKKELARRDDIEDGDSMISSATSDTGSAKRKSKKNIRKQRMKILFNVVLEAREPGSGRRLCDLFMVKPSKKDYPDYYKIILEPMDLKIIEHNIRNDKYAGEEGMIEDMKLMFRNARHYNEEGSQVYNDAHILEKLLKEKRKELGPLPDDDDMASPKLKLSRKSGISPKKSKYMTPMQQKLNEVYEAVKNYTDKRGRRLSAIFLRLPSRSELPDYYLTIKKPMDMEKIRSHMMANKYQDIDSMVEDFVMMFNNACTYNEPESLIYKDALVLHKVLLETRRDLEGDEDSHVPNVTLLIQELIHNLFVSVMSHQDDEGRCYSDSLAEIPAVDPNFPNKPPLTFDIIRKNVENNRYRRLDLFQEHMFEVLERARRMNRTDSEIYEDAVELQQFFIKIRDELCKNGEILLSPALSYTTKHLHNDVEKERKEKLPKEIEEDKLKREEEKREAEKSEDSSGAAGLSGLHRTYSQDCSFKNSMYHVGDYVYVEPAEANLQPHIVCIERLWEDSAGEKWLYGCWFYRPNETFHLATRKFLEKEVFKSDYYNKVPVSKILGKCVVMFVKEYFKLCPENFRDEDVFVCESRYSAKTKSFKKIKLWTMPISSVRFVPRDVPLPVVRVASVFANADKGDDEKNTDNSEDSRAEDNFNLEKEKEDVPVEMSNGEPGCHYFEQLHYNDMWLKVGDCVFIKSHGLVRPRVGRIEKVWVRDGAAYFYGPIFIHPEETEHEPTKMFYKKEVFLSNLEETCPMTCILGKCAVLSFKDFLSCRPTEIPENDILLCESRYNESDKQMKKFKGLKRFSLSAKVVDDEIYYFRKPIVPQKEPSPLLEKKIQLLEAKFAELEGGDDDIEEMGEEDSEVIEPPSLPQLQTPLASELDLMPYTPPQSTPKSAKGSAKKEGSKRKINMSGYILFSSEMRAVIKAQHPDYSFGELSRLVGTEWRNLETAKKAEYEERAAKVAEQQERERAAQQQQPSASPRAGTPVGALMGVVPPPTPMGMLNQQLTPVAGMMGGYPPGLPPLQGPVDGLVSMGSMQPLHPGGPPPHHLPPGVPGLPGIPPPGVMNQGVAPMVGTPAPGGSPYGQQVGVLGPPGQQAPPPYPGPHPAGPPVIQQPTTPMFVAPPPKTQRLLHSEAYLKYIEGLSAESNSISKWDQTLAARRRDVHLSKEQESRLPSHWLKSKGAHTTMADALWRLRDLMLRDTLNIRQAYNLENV
T6 sequence (P40337 whole entry): as the sequence (P40337 whole entry) above
T5 sequence (P01106 whole entry): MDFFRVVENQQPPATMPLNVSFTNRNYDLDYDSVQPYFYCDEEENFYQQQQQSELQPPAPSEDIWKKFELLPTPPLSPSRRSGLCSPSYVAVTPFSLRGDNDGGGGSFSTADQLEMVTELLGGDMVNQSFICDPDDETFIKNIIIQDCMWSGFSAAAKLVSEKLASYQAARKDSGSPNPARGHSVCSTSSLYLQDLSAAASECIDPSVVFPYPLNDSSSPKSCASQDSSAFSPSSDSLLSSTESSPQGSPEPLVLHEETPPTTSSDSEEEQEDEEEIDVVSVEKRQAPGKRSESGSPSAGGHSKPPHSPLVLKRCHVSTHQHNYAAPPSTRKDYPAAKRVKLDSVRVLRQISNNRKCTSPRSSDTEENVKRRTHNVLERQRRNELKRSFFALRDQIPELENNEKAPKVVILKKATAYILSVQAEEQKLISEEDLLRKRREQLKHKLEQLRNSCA
T5 sequence (Q96SW2 whole entry): as the sequence (Q96SW2 whole entry, looked up, other chains not shown) above
von Hippel-Lindau disease tumor suppressor/Apoptosis regulator Bcl-2, sequence (P10415 whole entry): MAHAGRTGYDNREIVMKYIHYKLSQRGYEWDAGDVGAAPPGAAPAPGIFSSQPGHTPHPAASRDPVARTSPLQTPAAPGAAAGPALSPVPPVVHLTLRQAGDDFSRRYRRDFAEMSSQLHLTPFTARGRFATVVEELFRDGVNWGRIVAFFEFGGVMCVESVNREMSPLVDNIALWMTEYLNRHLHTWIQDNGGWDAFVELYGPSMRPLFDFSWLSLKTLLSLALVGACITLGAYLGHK
von Hippel-Lindau disease tumor suppressor/Apoptosis regulator Bcl-2, sequence (P40337 whole entry): as the sequence (P40337 whole entry) above

COc1cc(N2CCC(N3CCN(C(=O)CCCCCCCCC(=O)N[C@H](C(=O)N4C[C@H](O)C[C@H]4C(=O)NCc4ccc(-c5scnc5C)cc4)C(C)(C)C)CC3)CC2)ccc1Nc1ncc(Cl)c(Nc2ccccc2P(C)(C)=O)n1
DC50 [1]: 7.5 nM

COc1cc(OC)c(Cl)c(NC(=O)N(C)c2cc(Nc3ccc(N4CCN(CC(=O)N[C@H](C(=O)N5C[C@H](O)C[C@H]5C(=O)N[C@@H](C)c5ccc(-c6scnc6C)cc5)C(C)(C)C)CC4)cc3)ncn2)c1Cl
DC50 [2]: 4.35 nM | Emax [3]: 85%

Cc1ncsc1-c1ccc([C@H](C)NC(=O)[C@@H]2C[C@@H](O)CN2C(=O)[C@@H](NC(=O)CCCCCCC(=O)N2CCN(C[C@]3(C)CCC(c4ccc(Cl)cc4)=C(CN4CCN(c5ccc(C(=O)NS(=O)(=O)c6ccc(N[C@H](CCN7CCOCC7)CSc7ccccc7)c(S(=O)(=O)C(F)(F)F)c6)cc5)CC4)C3)CC2)C(C)(C)C)cc1
DC50 [4]: 6 nM | DC50 [5]: 48 nM

CNc1nc(Nc2ccc(C(=O)N3CCN(C[C@H]4CC[C@H](CSC(C)(C)[C@H](NC(=O)C5(F)CC5)C(=O)N5C[C@H](O)C[C@@H]5C(=O)NCc5ccc(-c6scnc6C)cc5)CC4)CC3)cc2OC)ncc1Cl
Activity [6]: 50% | Emax [7]: 82% | Cmax [8]: 3620 ng/mL | bioavailability [9]: 15% | Activity [10]: 30% | Tmax [11]: 2 h | Emax [12]: 90% | Activity [13]: 20% | DC50 [14]: 32 nM | Cmax [15]: 7700 ng/mL | Tmax [16]: 0.25 h | DC50 [17]: 14 nM

CNc1nc(Nc2ccc(C(=O)N3CCN(CCCOc4cc(-c5scnc5C)ccc4CNC(=O)[C@H]4C[C@@H](O)CN4C(=O)[C@@H](NC(=O)C4(F)CC4)C(C)(C)C)CC3)cc2OC)ncc1Cl
Activity [6]: 60%

Cc1sc2c(c1C)C(c1ccc(Cl)cc1)=N[C@@H](CC(=O)NCCCCNC(=O)COc1cccc3c1C(=O)N(C1CCC(=O)NC1=O)C3=O)c1nnc(C)n1-2 (some centres not stated)
Emax [18]: 93%

Cc1sc2c(c1C)C(c1ccc(Cl)cc1)=N[C@H](CC(=O)Nc1cccc(OCCOCCOCCNc3cccc4nnn(C5CCC(=O)NC5=O)c(=O)c34)c1)c1nnc(C)n1-2 (some centres not stated)
DC50 [19]: 0.32 nM

Cc1ncsc1-c1ccc([C@H](CCCCCN2CCC(c3ccc4c(c3)n(C3CCCC3)c3nc(=O)c5c(Br)cccc5n43)CC2)NC(=O)C2C[C@@H](O)CN2C(=O)[C@@H](NC(=O)C2(F)CC2)C(C)(C)C)cc1 (some centres not stated)
bioavailability [20]: 3% | DC50 [21]: 32 nM

CC(C)c1ccc(/C=C2\SC(=O)N(CCCCCCCCNC(=O)c3ccc4c(c3)C(=O)N(C3CCC(=O)NC3=O)C4=O)C2=O)cc1 (configuration not stated)
DC50 [22]: 5000 nM | DC50 [23]: ~10000 nM

COc1cc(C(=O)NCCOCCOCCOCCNC(=O)C[C@@H]2N=C(c3ccc(Cl)cc3)c3c(sc(C)c3C)-n3c(C)nnc32)ccc1NC(=O)[C@@H]1N[C@@H](CC(C)(C)C)[C@](C#N)(c2ccc(Cl)cc2F)[C@H]1c1cccc(Cl)c1F
Emax [24]: 98%

Nc1ncnc2c1c(-c1ccc(Oc3ccccc3)cc1)nn2C1CCN(CCOCCOCC(=O)Nc2ccc3c(c2)C(=O)N(C2CCC(=O)NC2=O)C3=O)CC1 (configuration not stated)
Emax [25]: 99%

Cc1ncsc1-c1ccc(CNC(=O)[C@@H]2C[C@@H](O)CN2C(=O)[C@@H](NC(=O)C2(F)CC2)C(C)(C)C)c(OCCOc2ccc(CN3CCN(c4cc(-c5ccccc5O)nnc4N)CC3)cc2)c1
DC50 [26]: 32 nM | DC50 [27]: 3.3 nM | DC50 [28]: 15.6 nM

Cc1ncsc1-c1ccc([C@H](CC[C@H](C)CCN2CCC(c3ccc4c(c3)n(C3CCCC3)c3nc(=O)c5c(Br)cccc5n43)CC2)NC(=O)C2C[C@@H](O)CN2C(=O)[C@@H](NC(=O)C2(F)CC2)C(C)(C)C)cc1 (some centres not stated)
bioavailability [20]: 22% | DC50 [21]: 1 nM

COC(=O)C[C@@H]1N=C(c2ccc(Cl)cc2)c2c(sc(C(=O)NCCCCCNc3ccc4c(c3)C(=O)N(C3CCC(=O)NC3=O)C4=O)c2C)-n2c(C)nnc21 (some centres not stated)
DC50 [29]: 5 nM

CN[C@@H](C)C(=O)N[C@H](C(=O)N1CCC[C@H]1c1nc(C(=O)c2ccc(F)cc2)cs1)C1CCN(CCCC(=O)N2CCC[C@@H](n3nc(-c4ccc(Oc5ccc(F)cc5F)cc4)c(C(N)=O)c3N)C2)CC1
DC50 [30]: 4700 nM

Cc1sc2c(c1C)C(c1ccc(Cl)cc1)=N[C@@H](CC(=O)NCCCCNC(=O)CN1CCOc3cc(N(CCC#N)C(=O)CCl)ccc31)c1nnc(C)n1-2
DC50 [31]: 250 nM | Emax [32]: 94%

Cc1ncsc1-c1ccc(OCCCN2CCC(c3ccc4c(c3)n(C3CCCC3)c3nc(=O)c5c(Br)cccc5n43)CC2)c(CNC(=O)[C@@H]2C[C@@H](O)CN2C(=O)[C@@H](NC(=O)C2(F)CC2)C(C)(C)C)c1
Emax [33]: 46% | DC50 [21]: 78 nM
